Measured values reported in patent US20230190690A1, “[…] AND/OR […] FOR CORONAVIRUS DISEASE 2019 (COVID-19)” (NEOPHARMA JAPAN CO., LTD., priority 2020, published 2023).

Test system: variants of SARS-CoV-2
Test: Infection of cells with a SARS-CoV-2 variant in the same manner
Assay type: cell-based
Conditions: cells infected with a variant in the same manner

NCC(=O)CCC(=O)O [5-ALA, 5-aminolevulinic acid]
inhibitory effect on SARS-CoV-2 infection and/or proliferation (variant): inhibitory effect on SARS-CoV-2 infection and/or proliferation is expected
